In patent EP4813403A1, “USE OF GLP-1R/GIPR DOUBLE-TARGET AGONIST IN PREPARING ANIMAL DRUG” (Hangzhou Zhongmeihuadong Pharmaceutical Co., Ltd., priority 2023, dated 2025):

Assays:
db/db mice = test: Pharmacodynamic effects in db/db mice, single subcutaneous administration (blood glucose); type: in vivo; settings: single s.c. 10 nmol/kg
Procedure: In this study, 8-9 week old male db/db mice were used. The db/db mice were placed in an individual ventilated cage (IVC) facility with a controlled temperature (20-26°C) and humidity (40-70%) and a controlled 12h:12 h light-dark cycle. The mice can receive food and water ad libitum. Blood was sampled at the tail tip, and the random base blood glucose was measured by a Roche blood glucose meter. The mice were randomly divided into groups according to the random initial fasting blood glucose and initial body weight (n=6/group), and each group had similar body weight and blood glucose.
After a single subcutaneous administration, the random base blood glucoses were recorded at the set time point (0 to 120 hours, the recording of the random base blood glucose was stopped until there was no difference between the random base blood glucose of the compound and that of the vehicle group), and the daily body weight and food intake were also recorded. The data results were statistically analyzed using GraphPad Prism8, and the statistical differences among the groups were analyzed following a T-Test. Significant differences were identified at p<0.05.
Hypoglycemic Duration: the longest time during which the random base blood glucose of the compound has a significant difference (p<0.05) vs. the vehicle group. Table 13. Hypoglycemic Duration of the Compounds

human GLP-1R = human GLP-1R (Homo sapiens, UniProt P43220); test: In vitro binding activity to human GLP-1 receptor ([125I]GLP-1 displacement, crude cell membranes); set-up: expressed in transfected cells; settings: ratio of the Ki value of the endogenous ligand to the Ki value of the test compound; larger ratio = stronger binding
Procedure: (§1) 89 µL of membrane dissolved in binding buffer (50 mM Hepes, pH 7.4, 5 mM MgCl2 , 5 mM EDTA, 0.005% TWEEN, 0.005% HSA) was transferred to a 96-well test plate (5 µg/well). The compound was serially diluted in DMSO, and then, 1 µL of the diluted compound or 100% DMSO was added to the test plate containing the membrane solution. 10 µL of [^125I] […] The test plate was left at room temperature for 90 minutes. The membrane complexes were harvested into a GF/B plate pre-coated with 0.5% PEI by using a Cell Harvester, and washed for 3 times with 500 µL of pre-cooled elution buffer (50 mM Hepes, pH 7.4, 500 mM NaCl) at 4°C. After drying at 37°C for 2 hours, 50 µL of scintillation fluid was added to each well. The plate was read with a MicroBeta2 scintillation counter after sealing and settling for at least 1 hour so as to determine the membrane bound radioligand level.
The IC50 concentration was converted to Ki (Ki was the inhibition constant) using the Cheng-Prusoff equation.

[1] = Pharmacokinetics following single administration in SD rats; settings: male, Sprague-Dawley, rat, in vivo, sc
Procedure: The compound was administrated to male SD rats (230-268 g, n=3) at a dose of 50.0 nmol/kg (s.c.) or 25.0 nmol/kg (i.v.). […] 30.0 μL of thawed plasma sample was taken. 150 μL of acetonitrile solution (containing 5 ng·mL^-1 Verapamil , 50 ng·mL^-1 Glibenclamide, 200 ng·mL^-1 Tolbutamide and 200 ng·mL^-1 Diclofenac) were added to precipitate protein. The mixture was vortexed for 5 minutes, and centrifuged at 3700 rpm for 8 minutes. 70.0 μL of the supernatant was taken, into which 70.0 μL of 0.5% aqueous formic acid solution was added. The mixture was vortexed for 5 minutes. 15 μL of the mixture solution was sampled and injected into the LC-MS/MS to determine the drug concentration in plasma. 20.0 μL of thawed plasma sample was taken. 60 μL of acetonitrile solution (containing 5 ng·mL^-1 Verapamil, 50 ng·mL^-1 Glibenclamide, 200 ng·mL^-1 Tolbutamide and 200 ng·mL^-1 Diclofenac) were added to precipitate protein. […] The mixture was vortexed for 10 minutes. 10.0 μL of the mixture solution was sampled and injected into the LC-MS/MS to determine the drug concentration in plasma. 30.0 μL of thawed plasma sample was taken. 150 μL of acetonitrile solution (containing 5 ng·mL^-1 Verapamil, 50 ng·mL^-1 Glibenclamide, 200 ng·mL^-1 Tolbutamide and 200 ng·mL^-1 Diclofenac) were added to precipitate protein. The mixture was vortexed for 5 minutes, and centrifuged at 3700 rpm for 8 minutes. 70.0 μL of the supernatant was taken, into which 70.0 μL of 0.5% aqueous formic acid solution was added. The mixture was vortexed for 5 minutes. 10.0 μL of the mixture solution was sampled and injected into the LC-MS/MS to determine the drug concentration in plasma. […] Table 5 Pharmacokinetic Parameters after Subcutaneous Injection of Different Polypeptide Compounds to Rats

human GIP Receptor = molecular target: T1, human GIP Receptor (Homo sapiens, UniProt P48546); test: In vitro binding activity to human GIP receptor ([125I]GIP displacement, crude cell membranes); settings: ratio of the Ki value of the endogenous ligand to the Ki value of the test compound; larger ratio = stronger binding
T1 construct: expressed in transfected cells
T1 sequence (P48546 22-466): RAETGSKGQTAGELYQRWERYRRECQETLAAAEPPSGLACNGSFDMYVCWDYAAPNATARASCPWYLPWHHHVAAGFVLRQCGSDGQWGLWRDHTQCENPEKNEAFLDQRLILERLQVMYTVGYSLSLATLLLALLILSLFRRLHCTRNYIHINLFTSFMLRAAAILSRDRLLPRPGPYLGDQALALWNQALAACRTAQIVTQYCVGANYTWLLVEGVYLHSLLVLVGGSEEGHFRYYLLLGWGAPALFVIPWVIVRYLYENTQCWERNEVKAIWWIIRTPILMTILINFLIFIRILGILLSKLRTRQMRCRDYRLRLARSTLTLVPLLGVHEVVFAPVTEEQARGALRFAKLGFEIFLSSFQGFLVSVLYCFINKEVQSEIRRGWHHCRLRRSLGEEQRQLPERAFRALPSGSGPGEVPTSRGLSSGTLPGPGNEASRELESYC
Procedure: as §1
hGIP and the compound of the present invention were dissolved in DMSO and stored at -80°C. 98 µL of membrane dissolved in binding buffer (50 mM HEPES pH 7.4, 5 mM MgCl2, 1 mM CaCl2, 0.1% BSA, 0.005% Tween-20) was transferred to a 96-well test plate (15 µg/well). The compound was serially diluted in DMSO, and then, 2 µL of the diluted compounds or 100% DMSO was added to the test plate containing the membrane solution. […] The test plate was left at room temperature for 90 minutes. The membrane complexes were harvested into a GF/B plate pre-coated with 0.5% PEI by using a Cell Harvester, and washed for 3 times with 500 µL of pre-cooled elution buffer (50 mM Tris-HCl pH 7.4, 125 mM NaCl) at 4°C. After drying at 37°C for 2 hours, 50 µL of scintillation fluid was added to each well. The plate was read with a MicroBeta2 scintillation counter after sealing and settling for at least 1 hour so as to determine the membrane bound radioligand level.
The IC50 concentration was converted to Ki (Ki was the inhibition constant) using the Cheng-Prusoff equation. Table 1. Receptor Binding Affinity, Ki Ratio

Sequence of human GLP-1R (P43220 24-463): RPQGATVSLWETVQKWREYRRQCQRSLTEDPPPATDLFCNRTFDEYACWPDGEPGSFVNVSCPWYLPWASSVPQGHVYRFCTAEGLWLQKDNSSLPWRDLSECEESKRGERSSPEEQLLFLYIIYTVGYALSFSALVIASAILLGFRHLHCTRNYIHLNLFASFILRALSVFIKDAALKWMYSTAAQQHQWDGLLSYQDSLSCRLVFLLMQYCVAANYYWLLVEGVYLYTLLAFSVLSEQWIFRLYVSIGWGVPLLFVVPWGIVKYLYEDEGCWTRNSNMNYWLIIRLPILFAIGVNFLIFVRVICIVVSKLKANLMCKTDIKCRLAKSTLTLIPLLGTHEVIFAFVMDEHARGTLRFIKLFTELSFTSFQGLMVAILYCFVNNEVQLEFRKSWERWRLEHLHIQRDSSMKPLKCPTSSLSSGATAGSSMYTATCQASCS

| SMILES | Hypoglycemic Duration (db/db mice; Group 2, longest time with p<0.05 vs. vehicle) | GLP-1R Ki ratio (human GLP-1R) | Tmax [1] | half-life [1] | GIPR Ki ratio (human GIP Receptor) | inhibition of the blood glucose AUC, times of that of P001 (db/db mice) | Hypoglycemic Duration (db/db mice; Group 1, longest time with p<0.05 vs. vehicle) |
| --- | --- | --- | --- | --- | --- | --- | --- |
| CC[C@H](C)[C@H](NC(=O)C(C)(C)NC(=O)[C@H](Cc1ccc(O)cc1)NC(=O)[C@H](CC(=O)O)NC(=O)[C@H](CO)NC(=O)[C@@H](NC(=O)C(C)(Cc1ccccc1)NC(=O)[C@@H](NC(=O)CNC(=O)[C@H](CCC(=O)O)NC(=O)C(C)(C)NC(=O)[C@@H](N)Cc1ccc(O)cc1)[C@@H](C)O)[C@@H](C)O)C(=O)NC(C)(C)C(=O)N[C@@H](CC(C)C)C(=O)N[C@@H](CC(=O)O)C(=O)N[C@@H](CCCCN)C(=O)N[C@@H](CCC(N)=O)C(=O)N[C@@H](C)C(=O)N[C@@H](CCC(N)=O)C(=O)N[C@@H](C)C(=O)N[C@@H](CCC(=O)O)C(=O)N[C@@H](Cc1ccccc1)C(=O)N[C@H](C(=O)N[C@@H](CCCCN)C(=O)N[C@@H](Cc1c[nH]c2ccccc12)C(=O)N[C@@H](CC(C)C)C(=O)N[C@@H](CC(C)C)C(=O)N[C@@H](CCCCNC(=O)COCCOCCNC(=O)COCCOCCNC(=O)CC[C@H](NC(=O)CC[C@H](NC(=O)CC[C@H](NC(=O)CCCCCCCCCCCCCCCCC(=O)O)C(=O)O)C(=O)O)C(=O)O)C(=O)NCC(=O)NCC(=O)N1CCC[C@H]1C(=O)N[C@@H](CO)C(=O)N[C@@H](CO)C(=O)NCC(=O)N[C@@H](C)C(=O)N1CCC[C@H]1C(=O)N1CCC[C@H]1C(=O)N1CCC[C@H]1C(=O)N[C@@H](CO)C(=O)N[C@@H](CCCCN)C(N)=O)C(C)C (some centres unmarked) [Compound P018] | 48 h | 1.45 | 24 h | 18.3 ± 6.77 h | 0.05 | – | – |
| CC[C@H](C)[C@H](NC(=O)C(C)(C)NC(=O)[C@H](Cc1ccc(O)cc1)NC(=O)[C@H](CC(=O)O)NC(=O)[C@H](CO)NC(=O)[C@@H](NC(=O)C(C)(Cc1ccccc1)NC(=O)[C@@H](NC(=O)CNC(=O)[C@H](CCC(=O)O)NC(=O)C(C)(C)NC(=O)[C@@H](N)Cc1ccc(O)cc1)[C@@H](C)O)[C@@H](C)O)C(=O)NC(C)(C)C(=O)N[C@@H](CC(C)C)C(=O)N[C@@H](CC(=O)O)C(=O)N[C@@H](CCCCN)C(=O)N[C@@H](CCC(N)=O)C(=O)N[C@@H](C)C(=O)N[C@@H](CCC(N)=O)C(=O)N[C@@H](C)C(=O)N[C@@H](CCC(=O)O)C(=O)N[C@@H](Cc1ccccc1)C(=O)N[C@H](C(=O)N[C@@H](CCCCN)C(=O)N[C@@H](Cc1c[nH]c2ccccc12)C(=O)N[C@@H](CC(C)C)C(=O)N[C@@H](CC(C)C)C(=O)N[C@@H](CCCCNC(=O)COCCOCCNC(=O)COCCOCCNC(=O)COCCOCCNC(=O)CC[C@H](NC(=O)CCCCCCCCCCCCCCCCC(=O)O)C(=O)O)C(=O)NCC(=O)NCC(=O)N1CCC[C@H]1C(=O)N[C@@H](CO)C(=O)N[C@@H](CO)C(=O)NCC(=O)N[C@@H](C)C(=O)N1CCC[C@H]1C(=O)N1CCC[C@H]1C(=O)N1CCC[C@H]1C(=O)N[C@@H](CO)C(=O)N[C@@H](CCCCN)C(N)=O)C(C)C (some centres unmarked) [Compound P019] | – | 0.93 | 13.3 ± 9.24 h | 10.9 ± 1.92 h | 0.09 | 2.2 times | 56 h |
